This is an account of results in patent US7879858B2, “Substituted tetrahydropyrrolopyrazine compounds and the use thereof in pharmaceutical compositions” (Gruenenthal GmbH, priority 2006, dated 2011).

One assay addresses T1, Serotonin reuptake (Rattus norvegicus, UniProt P31652).
T1 construct: synaptosomes are freshly isolated from areas of the rat brain; from tissue; host or cells: rat brain synaptosomes (P2 fraction)
Briefly: Inhibition of 5HT (serotonin) uptake in rat brain synaptosomes. It is filed as biochemical. Conditions: 10 μmol; synaptosomes from rat brain. Here is the method:
(§1) Biological Data Inhibition of NA and 5HT Uptake
(§2) In order to be able to carry out these in vitro studies, synaptosomes are freshly isolated from areas of the rat brain. In each case a so-called “P2” fraction prepared in accordance with the instructions of Gray and Whittaker (E. G. Gray and V. P. Whittaker (1962) J. Anat. 76, 79-88) is prepared. For the NA uptake, these vesicular particles are isolated from the hypothalamus of male rat brains. A detailed description of the method can be found in the literature (M. Ch. Frink, H.-H. Hennies, W. Englberger, M. Haurand and B. Wilffert (1996) Arzneim.-Forsch./Drug Res. 46 (III), 11, 1029-1036).

A further assay has as its system NA reuptake. Put plainly: Inhibition of NA (noradrenaline) uptake in rat hypothalamus synaptosomes. It is filed as biochemical. The following applies: synaptosomes from hypothalamus of male rat brains. Here is the method: as §1, §2

T1 sequence (P31652 whole entry): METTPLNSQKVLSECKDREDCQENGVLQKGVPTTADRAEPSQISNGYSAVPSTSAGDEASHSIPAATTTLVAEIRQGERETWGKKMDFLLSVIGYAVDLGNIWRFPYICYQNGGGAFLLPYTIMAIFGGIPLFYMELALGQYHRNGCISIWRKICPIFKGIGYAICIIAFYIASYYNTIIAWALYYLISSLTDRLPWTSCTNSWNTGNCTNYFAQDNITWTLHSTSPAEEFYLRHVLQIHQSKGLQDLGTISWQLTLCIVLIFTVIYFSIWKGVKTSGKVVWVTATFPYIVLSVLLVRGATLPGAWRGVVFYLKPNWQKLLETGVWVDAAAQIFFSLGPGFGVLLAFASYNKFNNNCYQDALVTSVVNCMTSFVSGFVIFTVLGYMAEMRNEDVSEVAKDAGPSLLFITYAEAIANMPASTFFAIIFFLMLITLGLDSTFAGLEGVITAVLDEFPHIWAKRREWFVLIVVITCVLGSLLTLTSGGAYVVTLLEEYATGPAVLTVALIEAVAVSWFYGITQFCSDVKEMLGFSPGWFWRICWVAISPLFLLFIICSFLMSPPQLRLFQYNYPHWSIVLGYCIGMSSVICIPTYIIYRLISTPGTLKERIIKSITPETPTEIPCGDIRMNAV

The inhibition is how much of the control response was suppressed. `CC(C)CC(=O)N1CCn2cccc2C1c1ccc(Cl)c(Cl)c1` (stereo not shown) [Example 64, 1-(1-(3,4-dichlorophenyl)-3,4-dihydropyrrolo[1,2-a]pyrazin-2(1H)-yl)-3-methylbutan-1-one] returned an inhibition at 10 µM on Serotonin reuptake of 48%. In addition, the “NA reuptake % inhibition [10 μmol]” value in the assay on NA reuptake was 30%.
As to `Cc1cccc(C2c3cccn3CCN2C(=O)C2CCCC2)c1` (stereo not shown) [Example 17, cyclopentyl(1-m-tolyl-3,4-dihydropyrrolo[1,2-a]pyrazin-2(1H)-yl)methanone], the inhibition at 10 µM against Serotonin reuptake amounted to 34%. Besides, the “NA reuptake % inhibition [10 μmol]” value with NA reuptake is given as 21%.
At Serotonin reuptake, `O=C(c1ccc2c(c1)OCO2)N1CCn2cccc2C1c1cccs1` (stereo not shown) [Example 56, benzo[1,3]dioxol-5-yl-(1-thiophen-2-yl-3,4-dihydro-1H-pyrrolo[1,2-a]pyrazin-2-yl)-methanone] came in with an inhibition at 10 µM of 56%. For the same compound, in the assay on NA reuptake, the “NA reuptake % inhibition [10 μmol]” value was determined as 35%.
The like results for `Cc1cccc(C2c3cccn3CCN2C(=O)c2ccc(F)cc2)c1` (stereo not shown) [Example 13, (4-fluoro-phenyl)-(1-m-tolyl-3,4-dihydro-1H-pyrrolo[1,2-a]pyrazin-2-yl)-methanone] were, in that order, 55% and 41%.
The like results for `O=C(C1CCC1)N1CCn2cccc2C1c1ccc(F)cc1` (stereo not shown) [Example 28, cyclobutyl(1-(4-fluorophenyl)-3,4-dihydropyrrolo[1,2-a]pyrazin-2(1H)-yl)methanone] were, in that order, 29% and 21%.
For `O=C(C1CCCC1)N1CCn2cccc2C1c1ccc(Cl)c(Cl)c1` (stereo not shown) [Example 62, cyclopentyl-[1-(3,4-dichloro-phenyl)-3,4-dihydro-1H-pyrrolo[1,2-a]pyrazin-2-yl]-methanone] the same measures were 51% and 29%.
In turn, `Cc1ccccc1C(=O)N1CCn2cccc2C1c1ccccc1` (stereo not shown) [Example 26, (1-phenyl-3,4-dihydropyrrolo[1,2-a]pyrazin-2(1H)-yl)(o-tolyl)methanone] came in with an inhibition at 10 µM at Serotonin reuptake of 32%. The “NA reuptake % inhibition [10 μmol]” value in the assay on NA reuptake was 23%.
The like results for `O=C(c1ccccc1F)N1CCn2cccc2C1c1cccc(Cl)c1` (stereo not shown) [Example 44, [1-(3-chloro-phenyl)-3,4-dihydro-1H-pyrrolo[1,2-a]pyrazin-2-yl]-(2-fluoro-phenyl)-methanone] were, in that order, 53% and 41%.
`Cc1cccc(C2c3cccn3CCN2C(=O)c2ccc3c(c2)OCO3)c1` (stereo not shown) [Example 18, benzo[1,3]dioxol-5-yl-(1-m-tolyl-3,4-dihydro-1H-pyrrolo[1,2-a]pyrazin-2-yl)-methanone] came in with an inhibition at 10 µM against Serotonin reuptake of 55%. Further, in the assay on NA reuptake, the “NA reuptake % inhibition [10 μmol]” value turned out to be 40%.
For the compound `O=C(c1cccc(F)c1)N1CCn2cccc2C1c1cccs1` (stereo not shown) [Example 58, (3-fluoro-phenyl)-(1-thiophen-2-yl-3,4-dihydro-1H-pyrrolo[1,2-a]pyrazin-2-yl)-methanone], testing at 10 µM at Serotonin reuptake gave an inhibition of 60%. For the same compound, the “NA reuptake % inhibition [10 μmol]” value in the assay on NA reuptake is reported as 54%.
The like results for `O=C(c1ccc(F)cc1)N1CCn2cccc2C1c1ccccc1` (stereo not shown) [Example 20, (4-fluorophenyl)(1-phenyl-3,4-dihydropyrrolo[1,2-a]pyrazin-2(1H)-yl)methanone] were, in that order, 32% and 33%.
At Serotonin reuptake, `O=C(/C=C/c1ccc(F)cc1F)N1CCn2cccc2C1c1ccccc1` (stereo not shown) [Example 71, 3-(2,4-difluorophenyl)-1-(1-phenyl-3,4-dihydropyrrolo[1,2-a]pyrazin-2(1H)-yl)prop-2-en-1-one] returned an inhibition at 10 µM of 27%. The “NA reuptake % inhibition [10 μmol]” value with NA reuptake is recorded as 17%.
For `COCC(=O)N1CCn2cccc2C1c1ccccc1` (stereo not shown) [Example 25, 2-methoxy-1-(1-phenyl-3,4-dihydropyrrolo[1,2-a]pyrazin-2(1H)-yl)ethanone] the same measures were 33% and 12%.
For `CC(C)C(=O)N1CCn2cccc2C1c1ccc(Cl)c(Cl)c1` (stereo not shown) [Example 67, 1-(1-(3,4-dichlorophenyl)-3,4-dihydropyrrolo[1,2-a]pyrazin-2(1H)-yl)-2-methylpropan-1-one] the same measures were 46% and 46%.
For `O=C(c1cccs1)N1CCn2cccc2C1c1ccc2c(c1)OCCO2` (stereo not shown) [Example 36, [1-(2,3-dihydro-benzo[1,4]dioxin-6-yl)-3,4-dihydro-1H-pyrrolo[1,2-a]pyrazin-2-yl]-thiophen-2-yl-methanone] the same measures were 59% and 41%.
At Serotonin reuptake, `CN(C)c1ccc(C2c3cccn3CCN2C(=O)c2ccc(F)cc2)cc1` (stereo not shown) [Example 54, (1-(4-(dimethylamino)phenyl)-3,4-dihydropyrrolo[1,2-a]pyrazin-2(1H)-yl)(4-fluorophenyl)methanone] registered an inhibition at 10 µM of 47%. For the same compound, in the assay on NA reuptake, the “NA reuptake % inhibition [10 μmol]” value is listed as 40%.
For `Cc1ccccc1C1c2cccn2CCN1C(=O)C1CCCC1` (stereo not shown) [Example 10, cyclopentyl-(1-o-tolyl-3,4-dihydro-1H-pyrrolo[1,2-a]pyrazin-2-yl)-methanone] the same measures were 50% and 30%.
For `O=C(c1cccc(F)c1)N1CCn2cccc2C1c1cccc(Cl)c1` (stereo not shown) [Example 43, [1-(3-chloro-phenyl)-3,4-dihydro-1H-pyrrolo[1,2-a]pyrazin-2-yl]-(3-fluoro-phenyl)-methanone] the same measures were 58% and 66%.
For `O=C(c1ccco1)N1CCn2cccc2C1c1ccccc1` (stereo not shown) [Example 21, furan-2-yl(1-phenyl-3,4-dihydropyrrolo[1,2-a]pyrazin-2(1H)-yl)methanone] the same measures were 11% and 44%.
Turning to `Cc1ccccc1C(=O)N1CCn2cccc2C1c1ccccc1F` (stereo not shown) [Example 8, (1-(2-fluorophenyl)-3,4-dihydropyrrolo[1,2-a]pyrazin-2(1H)-yl)(o-tolyl)methanone], testing at 10 µM against Serotonin reuptake gave an inhibition of 37%. Moreover, in the assay on NA reuptake, the “NA reuptake % inhibition [10 μmol]” value amounted to 18%.
The like results for `COc1ccccc1C1c2cccn2CCN1C(=O)c1ccccc1F` (stereo not shown) [Example 49, (2-fluorophenyl)(1-(2-methoxyphenyl)-3,4-dihydropyrrolo[1,2-a]pyrazin-2(1H)-yl)methanone] were, in that order, 47% and 12%.
As for `Cc1cccc(C2c3cccn3CCN2C(=O)c2cccc(F)c2)c1` (stereo not shown) [Example 16, (3-fluoro-phenyl)-(1-m-tolyl-3,4-dihydro-1H-pyrrolo[1,2-a]pyrazin-2-yl)-methanone], at 10 µM the inhibition at Serotonin reuptake was 54%. For the same compound, the “NA reuptake % inhibition [10 μmol]” value in the assay with NA reuptake was determined as 49%.
The like results for `O=C(c1cccs1)N1CCn2cccc2C1c1ccccc1` (stereo not shown) [Example 22, (1-phenyl-3,4-dihydropyrrolo[1,2-a]pyrazin-2(1H)-yl)(thiophen-2-yl)methanone] were, in that order, 18% and 33%.
For `COc1ccccc1C(=O)N1CCn2cccc2C1c1ccccc1` (stereo not shown) [Example 27, (2-methoxyphenyl)(1-phenyl-3,4-dihydropyrrolo[1,2-a]pyrazin-2(1H)-yl)methanone] the same measures were 28% and 15%.
The like results for `O=C(c1ccc2c(c1)OCO2)N1CCn2cccc2C1c1ccc2c(c1)OCCO2` (stereo not shown) [Example 33, benzo[1,3]dioxol-5-yl-[1-(2,3-dihydro-benzo[1,4]dioxin-6-yl)-3,4-dihydro-1H-pyrrolo[1,2-a]pyrazin-2-yl]-methanone] were, in that order, 52% and 26%.
In turn, `O=C(c1ccccc1F)N1CCn2cccc2C1c1ccc2c(c1)OCCO2` (stereo not shown) [Example 35, [1-(2,3-dihydro-benzo[1,4]dioxin-6-yl)-3,4-dihydro-1H-pyrrolo[1,2-a]pyrazin-2-yl]-(2-fluoro-phenyl)-methanone] came in with an inhibition at 10 µM at Serotonin reuptake of 66%. Further, in the assay on NA reuptake, the “NA reuptake % inhibition [10 μmol]” value stood at 43%.
